Values quoted from earlier work in patent publication US20110046204A1, “Human Zip1, Zinc and Citrate for Prostate Cancer Screening” (University of Maryland, Balitmore, priority 2006, published 2011).

Conditions: zinc-indicator dye TSQ; read-out: affinity for zinc (Kd)

In the case of `COc1cc(NS(=O)(=O)c2ccc(C)cc2)c2ncccc2c1` [TSQ], the Kd is listed as about 10 nM.
